Measurements taken from patent US8685936B2, “Sphingosine kinase inhibitor prodrugs” (Apogee Biotechnology Corporation, priority 2009, dated 2014).
Entries after “also recorded” stand apart in the source; their conditions may differ. Each block holds one compound with its values, some of them ahead of it.

Experiments:
[1] = Conversion of Compound 2 to Compound 1 in living mice; plasma levels of Compound 1 by HPLC; type: in vivo
Experimental: FIG. 4. Conversion of Compound 2 into Compound 1 in vivo. Balb/C female mice, 6-8 weeks old, were dosed with either Compound 1 (●) or Compound 2 (♦) at 50 mg/kg by intravenous injection. Mice were euthanized at the indicate times after injection, and blood was harvested by cardiac puncture and plasma was prepared. The plasma was then extracted and analyzed for Compound 1 levels by HPLC.
To extend the in vitro studies described above, the ability of Compound 2 to be converted to Compound 1 in an in vivo test system was determined. In these experiments, Compound 1 or Compound 2 was dissolved in PEG400 and administered to female Balb/C mice at a dose of 50 mg/kg by intravenous injection. Mice were sacrificed and blood was removed via cardiac puncture at 2 minutes, 15 minutes, 30 minutes or 60 minutes. The concentration of Compound 1 in the blood of the animals at each of the time points was determined using HPLC with UV detection as described in the previous Example. […] In the case of administration of Compound 2, plasma concentrations of Compound 1 rose during the first 30 minutes and then were decreased with a half-time of clearance of approximately 20 minutes.

DSS-colitis model = assay: Acute DSS-colitis model of inflammatory bowel disease; type: in vivo, C57BL/6 mice; details: for colon length (contraction of the colon), ester prodrugs: 4-5 per group (Example 17, FIG. 10)
Experimental: FIG. 7. Effects of Compound 1 and Compound 2 on the Disease Activity Index (DAI) in the acute DSS-colitis model. […] After 6 days, the DAI was calculated for each group. Values represent the mean±std. dev. for 5-6 mice per group. […] FIG. 8. Effects of Compound 1 and Compound 2 on colon length in the acute DSS-colitis model. […] After 6 days, the animals were sacrificed and the length of the colon was measured. Values represent the mean±std. dev. for 6-7 mice per group. In this model, colon length decreases as the disease progresses. […] FIG. 9. Effects of Compound 1 and Compound 2 on neutrophil infiltration into the colon in the acute DSS-colitis model. […] After 6 days, the animals were sacrificed and the colons were harvested. Myeloperoxidase activity (MPO) was measured and normalized by the protein concentration of the samples. Values represent the mean±std. dev. for 6-7 mice per group. In this model, MPO activity in the colon increases as a result of neutrophil infiltration into the colon as the disease progresses. […] FIG. 10. Effects of ester prodrugs on colon length in the acute DSS-colitis model. C57BL/6 mice were treated for 6 days as follows: 2% DSS in the drinking water and daily oral administration of Vehicle (described in FIG. 7); or 2% DSS in the drinking water and oral administration of 50 mg/kg the indicated ester prodrugs in Vehicle. After 6 days, the animals were sacrificed and the length of the colon was measured. Values represent the mean±std. dev. for 4-5 mice per group. In this model, colon length decreases as the disease progresses. […] FIG. 11. Effects of ester prodrugs on neutrophil infiltration into the colon in the acute DSS-colitis model. C57BL/6 mice were treated for 6 days as follows: 2% DSS in the drinking water and daily oral administration of Vehicle (described in FIG. 7); or 2% DSS in the drinking water and oral administration of 50 mg/kg the indicated ester prodrugs in Vehicle. After 6 days, the animals were sacrificed and the length of the colon was measured. Values represent the mean±std. dev. for 4-5 mice per group. In this model, MPO activity in the colon increases as a result of neutrophil infiltration into the colon as the disease progresses. […] In these experiments, male C57BL/6 mice were provided with standard rodent diet and water ad libitum. After their acclimation, the animals were randomly divided into groups of 5 or 6 for DSS (40,000 MW from ICN Biomedicals, Inc., Aurora, Ohio)- and drug-treatment. The Compounds were dissolved in a Vehicle consisting of 46.7% PEG 400, 46.7% of a solution of 0.375% Tween 80 in saline and 6.6% ethanol, and given once daily (starting on Day 0) by oral gavage in a volume of 0.1 mL per dose. The mice were given normal drinking water or 2% DSS (starting on Day 0) and treated orally with Compound 1 or Compound 2 at a dose of 50 mg/kg daily. The body weight of each animal was measured each day, and the Disease Activity Index (DAI) was scored for each animal on Day 6. On Day 6, the animals were sacrificed by cervical dislocation and the entire colon was removed and measured to the nearest 0.1 cm. The distal 3 cm of the colons were used for biochemical analyses of inflammation markers.

[2] = test system: Murine JC mammary adenocarcinoma cells; assay: Cytotoxicity, MTS cell viability assay; type: cell-based; details: 72 hours
From the text: FIG. 5. Inhibition of tumor cell proliferation by Compound 1 and Compound 2. Murine JC mammary adenocarcinoma cells were exposed to the indicated concentrations of either Compound 1 (▪) or Compound 2 (▴) for 72 hr. At the end of the exposure, the number of viable tumor cells was quantified using the MTS assay. Values represent the fraction of surviving cells compared with DMSO-(vehicle)-treated control cells.
To further assess the biological efficacies of the Compounds in intact cells, Compound 1 and Compound 2 were evaluated for cytotoxicity using a murine breast cancer cell line. These experiments followed methods that have been extensively used. The cells were treated with varying doses of the test Compound for 72 hours, and then cell viability was measured using CellTiter 96® AQueous Non-Radioactive Cell Proliferation Assay (MTS) available from Promega Corporation. Values represent the mean±std. dev. percentage of cells that survive at each of the indicated concentrations of Compound 1 or Compound 2. […] However, the extent of cell killing and the potency for cell killing were greater for Compound 2 than Compound 1.

[3] = test system: TNBS-induced Crohn's Disease model; assay: TNBS-induced Crohn's Disease model; type: in vivo
Experimental: FIG. 12. Effects of Compound 1 and Compound 2 on colon histology in the TNBS-induced Crohn's Disease model. On Day 0, female Sprague-Dawley rats were administered TNBS using a stainless steel catheter that was inserted into the colon (8 cm proximal to the anus; 1.0 mL of solution containing 30 mg TNBS and 20% ethanol in PBS). On Days 0-5 animals received daily oral gavage of Vehicle (described in FIG. 7) or 50 mg/kg of Compound 1 or Compound 2 in Vehicle. On Day 6, the colons were removed, weighed and scored for macroscopic damage. The distal 6 cm were transected for subsequent histology and biochemical analyses. In this model, the macroscopic score is an index of histologic damage to the colon which increases as the disease progresses.
FIG. 13. Effects of Compound 1 and Compound 2 on colon weight in the TNBS-induced Crohn's Disease model. Colon weights were measured for the rats described in FIG. 12. Values represent the mean±std. dev. for 5-6 rats per group. In this model, colon weight increases as the disease progresses due to progressive inflammation-mediated edema.
FIG. 14. Effects of Compound 2 on neutrophil infiltration into the colon in the TNBS-induced Crohn's Disease model. Neutrophil infiltration was evaluated in the rats described in FIG. 12. Values represent the mean±std. dev. for 5-6 rats per group. In this model, MPO activity in the colon increases as a result of neutrophil infiltration into the colon as the disease progresses.
The trinitrobenzene sulfonic acid (TNBS) model in rats provides a rapid, reliable and reproducible IBD model that mimics the manifestations of Crohn's Disease. Application of the hapten TNBS to the colon in the presence of ethanol results in transmural infiltrative disease that is limited to the colon and appears to be an IL-12-driven, Th1-mediated immunologic response. […] TNBS induces measurable injury within 2 to 3 days, peak acute inflammation within a week, and gradual progression into chronic inflammation lasting about 2 months.
To test the efficacy of the Compounds, groups of female Sprague-Dawley rats were administered TNBS on Day 0 and treated with vehicle (as the negative control group), Compound 1 or Compound 2 on Days 0-5 by oral gavage at a dose of 50 mg/kg/day. […] Disease progression was evaluated by macroscopic score, colon weight and colon MPO activity at sacrifice. The macroscopic score measures macroscopic damage within the distal 6 cm of the colon using a system that considers the extent of and number of ulcerations.

[4] = TNBS Day 0, 50 mg/kg/day oral gavage Days 0-5, Day 6, female Sprague-Dawley rats
[5] = 2% DSS, 50 mg/kg oral, 6 days, C57BL/6 mice

Compound: O=C(NCCc1ccc(O)c(O)c1)C12CC3CC(C1)CC(c1ccc(Cl)cc1)(C3)C2 [Compound 1, 3-(4-Chlorophenyl)-adamantane-1-carboxylic acid [2-(3,4-dihydroxyphenyl)-ethyl]amide]
time of maximum plasma concentration of Compound 1 ([1]; 50 mg/kg intravenous, female Balb/C mice, sampling at 2, 15, 30, 60 minutes): earliest time point
half-time for clearance of Compound 1 from plasma ([1]; 50 mg/kg of the named compound by intravenous injection in PEG400, female Balb/C mice, Compound 1 measured): approximately 5 minutes
Disease Activity Index (DAI) (DSS-colitis model; 2% DSS in drinking water, 50 mg/kg daily oral, Day 6, C57BL/6 mice): reduced the intensity of the IBD manifestations
colon myeloperoxidase (MPO) activity (neutrophil infiltration) (DSS-colitis model; 2% DSS, 50 mg/kg daily oral, Day 6, C57BL/6 mice (Example 16, FIG. 9)): markedly attenuated
colon length (DSS-colitis model; 2% DSS, 50 mg/kg oral, Day 6, C57BL/6 mice (Example 16, FIG. 8)): colons of significantly longer length
inhibition of tumor cell proliferation (cell viability) [2]: can inhibit tumor cell proliferation
Compound-related toxicities ([3]; 50 mg/kg/day oral gavage Days 0-5, rats sacrificed on Day 6): no Compound-related toxicities apparent
Macroscopic Score of colon damage [3, 4]: but not Compound 1, reduced the Macroscopic Score; also recorded: much less active
colon weight [3, 4]: but not Compound 1 reduced the elevation of the colon weight; also recorded: much less active

Compound: CC(C)C(N)C(=O)Oc1cc(CCNC(=O)C23CC4CC(C2)CC(c2ccc(Cl)cc2)(C4)C3)ccc1O (stereo not drawn) [Compound 6, 2-Amino-3-methyl-butyric acid 5-(2-{[3-(4-chlorophenyl)adamantane-1-carbonyl]amino}ethyl)-2-hydroxyphenyl ester]
colon length (contraction of the colon), ester prodrugs (DSS-colitis model; [5]): effective in preventing the contraction of the colons
colonic MPO activity, ester prodrugs (DSS-colitis model; 2% DSS, 50 mg/kg oral, 6 days, C57BL/6 mice, 4-5 per group (Example 17, FIG. 11)): all of the Compounds except Compound 6 substantially prevented the elevation of colonic MPO activity

melting point: 78 to 80 °C
Compound: CCCC(=O)Oc1ccc(CCNC(=O)C23CC4CC(C2)CC(c2ccc(Cl)cc2)(C4)C3)cc1OC(=O)CCC [Compound 4, Butyric acid 2-butyryloxy-5-(2-{[3-(4-chlorophenyl)-adamantane-1-carbonyl]-amino}ethyl)phenyl ester]
colon length (contraction of the colon), ester prodrugs (DSS-colitis model; 2% DSS, 50 mg/kg oral, 6 days, C57BL/6 mice, 50 mg/kg): effective in preventing the contraction of the colons; also recorded: slightly less effective

melting point: 114 to 115 °C
Compound: CCC(=O)Oc1ccc(CCNC(=O)C23CC4CC(C2)CC(c2ccc(Cl)cc2)(C4)C3)cc1OC(=O)CC [Compound 3, Propionic acid 2-propionyloxy-5-(2-{[3-(4-chlorophenyl)-adamantane-1-carbonyl]-amino}ethyl)phenyl ester]
colon length (contraction of the colon), ester prodrugs (DSS-colitis model; [5]): effective in preventing the contraction of the colons
